Test results: PubChem BioAssay AID328 (DTP/NCI, 2004)
Inconclusive results and toxic doses are left out.

Test system: BDF1 mice, P388 leukemia ip, median survival T/C
Assay: NCI In Vivo Anticancer Drug Screen. Data for tumor model P388 Leukemia (intraperitoneal) in B6D2F1 (BDF1) mice
Settings: endpoint: median survival time, higher = longer survival
Method in brief: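 Each value expresses how treatment altered survival: treated-mouse outcome over vehicle-mouse outcome, both groups bearing the transplanted tumour.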

[1] = dose: 50.0 mg/kg/injection, schedule: Q01DX009 (ip), vehicle: saline with Tween-80
[2] = dose: 100.0 mg/kg/injection, schedule: Q01DX009 (ip), vehicle: saline with Tween-80
[3] = dose: 200.0 mg/kg/injection, schedule: Q01DX009 (ip), vehicle: saline with Tween-80
[4] = dose: 25.0 mg/kg/injection, schedule: Q01DX009 (ip), vehicle: saline with Tween-80
[5] = dose: 100.0 mg/kg/injection, schedule: Q04DX003 (ip), vehicle: Klucel (hydroxypropylcellulose) (HPC)
[6] = dose: 200.0 mg/kg/injection, schedule: Q04DX003 (ip), vehicle: Klucel (hydroxypropylcellulose) (HPC)
[7] = dose: 400.0 mg/kg/injection, schedule: Q04DX003 (ip), vehicle: Klucel (hydroxypropylcellulose) (HPC)

## CC1(C)C2CCC1(C)C1(C2)OC(CCl)CS1 (centres undefined)
[1]
  T/C: 90 % of control
[2]
  T/C: 94 % of control
[3]
  T/C: 108 % of control

## CCO/C=C1\SC(=S)N(Cc2ccccc2)C1=O
dose: 12.5 mg/kg/injection, schedule: Q01DX009 (ip), vehicle: other
  T/C: 86 % of control
dose: 25.0 mg/kg/injection, schedule: Q01DX009 (ip), vehicle: other
  T/C: 109 % of control
dose: 44.0 mg/kg/injection, schedule: Q04DX003 (ip), vehicle: other
  T/C: 118 % of control
dose: 44.0 mg/kg/injection, schedule: Q04DX003 (ip), vehicle: saline + alcohol
  T/C: 100 % of control
dose: 44.0 mg/kg/injection, schedule: Q04DX003 (ip), vehicle: saline with Tween-80
  T/C: 118 % of control
dose: 100.0 mg/kg/injection, schedule: Q04DX003 (ip), vehicle: saline + alcohol
  T/C: 104 % of control
dose: 150.0 mg/kg/injection, schedule: Q04DX003 (ip), vehicle: other
  T/C: 154 % of control
dose: 150.0 mg/kg/injection, schedule: Q04DX003 (ip), vehicle: saline + alcohol
  T/C: 95 % of control
dose: 150.0 mg/kg/injection, schedule: Q04DX003 (ip), vehicle: saline with Tween-80
  T/C: 116 % of control

## Cc1cnc(Cl)nc1Sc1nc(N)nc2nc[nH]c12
dose: 6.0 mg/kg/injection, schedule: Q01DX009 (ip), vehicle: saline with Tween-80
  T/C: 184 % of control
dose: 33.0 mg/kg/injection, schedule: Q04DX003 (ip), vehicle: saline with Tween-80
  T/C: 118 % of control
dose: 50.0 mg/kg/injection, schedule: Q04DX003 (ip), vehicle: saline with Tween-80
  T/C: 122 % of control
dose: 75.0 mg/kg/injection, schedule: Q04DX003 (ip), vehicle: saline with Tween-80
  T/C: 109 % of control
dose: 100.0 mg/kg/injection, schedule: Q04DX003 (ip), vehicle: saline with Tween-80
  T/C: 100 % of control

## O=C(NCCc1c[nH]c2ccccc12)c1cccnc1
dose: 100.0 mg/kg/injection, schedule: Q01DX001 (ip), vehicle: saline
  T/C: 104 % of control
dose: 200.0 mg/kg/injection, schedule: Q01DX001 (ip), vehicle: saline
  T/C: 100 % of control
dose: 400.0 mg/kg/injection, schedule: Q01DX001 (ip), vehicle: saline
  T/C: 95 % of control

## C=CC(OC)OC
dose: 6.25 mg/kg/injection, schedule: Q04DX003 (ip), vehicle: saline
  T/C: 95 % of control
dose: 12.5 mg/kg/injection, schedule: Q04DX003 (ip), vehicle: saline
  T/C: 100 % of control
dose: 25.0 mg/kg/injection, schedule: Q04DX003 (ip), vehicle: saline
  T/C: 104 % of control

## O=C1SC2(CCCCC2)SC1=O
[4]
  T/C: 95 % of control
[1]
  T/C: 95 % of control
[2]
  T/C: 104 % of control

## CCOC(=O)C1(c2ccccc2)C(=O)Oc2ccccc21 (centres undefined)
[4]
  T/C: 100 % of control
[1]
  T/C: 98 % of control
[2]
  T/C: 108 % of control
[3]
  T/C: 122 % of control

## C#CCCCOC(=O)Nc1ccccc1
dose: 50.0 mg/kg/injection, schedule: Q01DX009 (ip), vehicle: Klucel (hydroxypropylcellulose) (HPC)
  T/C: 90 % of control
dose: 100.0 mg/kg/injection, schedule: Q01DX009 (ip), vehicle: Klucel (hydroxypropylcellulose) (HPC)
  T/C: 90 % of control

## COc1ccc(/C(=C\S(C)=O)c2cccs2)cc1 (centres undefined)
[1]
  T/C: 105 % of control
[2]
  T/C: 107 % of control
[3]
  T/C: 100 % of control

## Cc1c(N)cc([N+](=O)[O-])c(C)c1[N+](=O)[O-]
[1]
  T/C: 95 % of control
[2]
  T/C: 90 % of control

## Cc1ccc(Cl)cc1NC(=O)c1ccccc1C(=O)O
[5]
  T/C: 91 % of control
[6]
  T/C: 95 % of control
[7]
  T/C: 91 % of control

## CC(=O)OC1CCC2(C)C3=C(CCC2C1)C1C(OC(=O)c2ccccc2[N+](=O)[O-])CC(c2ccc(=O)oc2)C1(C)CC3 (centres undefined)
dose: 0.25 mg/kg/injection, schedule: Q01DX009 (ip), vehicle: Klucel (hydroxypropylcellulose) (HPC)
  T/C: 102 % of control
dose: 0.5 mg/kg/injection, schedule: Q01DX009 (ip), vehicle: Klucel (hydroxypropylcellulose) (HPC)
  T/C: 111 % of control
dose: 1.0 mg/kg/injection, schedule: Q01DX009 (ip), vehicle: Klucel (hydroxypropylcellulose) (HPC)
  T/C: 100 % of control

## CC1(C)C2CC3C(C(=O)O)CCCC3(C2)C1Br (centres undefined)
[5]
  T/C: 90 % of control
[6]
  T/C: 100 % of control
[7]
  T/C: 95 % of control

## [Se]c1nccn2cnnc12
dose: 6.25 mg/kg/injection, schedule: Q01DX001 (ip), vehicle: saline with Tween-80
  T/C: 122 % of control
dose: 12.5 mg/kg/injection, schedule: Q01DX001 (ip), vehicle: saline with Tween-80
  T/C: 105 % of control
dose: 25.0 mg/kg/injection, schedule: Q01DX001 (ip), vehicle: saline with Tween-80
  T/C: 103 % of control
